Experiment [1] addresses T1, 3-oxoacyl-[acyl-carrier-protein] synthase 3 (Mycobacterium tuberculosis (strain CDC 1551 / Oshkosh), UniProt P9WNG2).
T1 sequence (P9WNG2 whole entry): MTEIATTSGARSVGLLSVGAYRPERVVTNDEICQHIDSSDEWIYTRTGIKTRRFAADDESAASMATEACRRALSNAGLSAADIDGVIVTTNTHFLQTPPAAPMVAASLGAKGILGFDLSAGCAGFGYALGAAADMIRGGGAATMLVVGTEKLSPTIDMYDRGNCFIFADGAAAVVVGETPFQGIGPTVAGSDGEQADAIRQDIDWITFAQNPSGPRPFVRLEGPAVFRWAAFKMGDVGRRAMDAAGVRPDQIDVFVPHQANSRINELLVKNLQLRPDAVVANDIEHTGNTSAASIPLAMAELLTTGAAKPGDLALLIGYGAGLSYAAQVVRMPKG
In words: FabH Enzyme Assay. The following applies: pH 7; 37 °C. The protocol:
(§1) Escherichia coli FabH assays were carried out using standard coupled trichloroacetic acid precipitation assay to determine the rate formation of radiolabeled 3-ketoacyl-ACP from malonyl-ACP. Mycobacterium tuberculosis FabH assay was done by sustituting malonyl-CoA for MACP.

Experiment [2] concerns the target T2, 3-oxoacyl-[acyl-carrier-protein] synthase 3 (Escherichia coli, UniProt C3TDZ2).
T2 sequence (C3TDZ2 whole entry): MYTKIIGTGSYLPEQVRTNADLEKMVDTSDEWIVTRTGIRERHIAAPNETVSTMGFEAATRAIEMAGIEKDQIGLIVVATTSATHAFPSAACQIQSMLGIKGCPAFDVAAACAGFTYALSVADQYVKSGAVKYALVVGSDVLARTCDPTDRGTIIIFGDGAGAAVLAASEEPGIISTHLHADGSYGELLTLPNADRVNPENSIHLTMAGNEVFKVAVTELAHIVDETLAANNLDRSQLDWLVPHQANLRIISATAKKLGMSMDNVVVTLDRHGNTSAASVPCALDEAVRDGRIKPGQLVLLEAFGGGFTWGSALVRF
In words: FabH Enzyme Assay. The following applies: pH 7; 37 °C. The protocol: as §1

`CCCCCCCCCCSSCCNC(=O)CCNC(=O)C(O)C(C)(C)OP(=O)(O)OP(=O)(O)OCC1OC(n2cnc3c(N)ncnc32)C(O)C1OP(=O)(O)O` (stereo not drawn) [Decyl-CoA disulfide 5]: the IC50 (in general, the midpoint of a concentration-inhibition curve) was 1.2 µM in experiment [1] and more than 300 µM in experiment [2].

On to `CCCCSSCCNC(=O)CCNC(=O)C(O)C(C)(C)OP(=O)(O)OP(=O)(O)OCC1OC(n2cnc3c(N)ncnc32)C(O)C1OP(=O)(O)O` (stereo not drawn) [Butyl-CoA disulfide 2], for which the IC50 in experiment [1] and in experiment [2] was more than 300 µM throughout.

In the case of `CSSCCNC(=O)CCNC(=O)C(O)C(C)(C)OP(=O)(O)OP(=O)(O)OCC1OC(n2cnc3c(N)ncnc32)C(O)C1OP(=O)(O)O` (stereo not drawn) [Methyl-CoA disulfide 1], the IC50 is more than 300 µM in experiment [1] and 57.1 µM in experiment [2].

As for `CCCCCCCCSSCCNC(=O)CCNC(=O)C(O)C(C)(C)OP(=O)(O)OP(=O)(O)OCC1OC(n2cnc3c(N)ncnc32)C(O)C1OP(=O)(O)O` (stereo not drawn) [Octyl-CoA disulfide 4], the IC50 is 30.1 µM in experiment [1] and more than 300 µM in experiment [2].

(Values after BindingDB's records for doi:10.1016/j.chembiol.2007.03.013 (Portland State University, 2007).)
